Patent publication US20260294853A1, “COSMETIC COMPOSITION HAVING ANTI-INFLAMMATORY ACTIVITY” (LG CHEM, LTD., priority 2023, published 2026)

System: Mouse macrophages
Assay: Evaluation of Reactive Nitrogen Species Inhibiting Ability (nitric oxide production in LPS-treated mouse macrophages, Griess reagent)
Type: cell-based
Conditions: under the treatment concentration of the 3-hydroxypropionic acid; LPS 1 μg/ml
Procedure: Mouse macrophages were divided into 1×10^6 cells in a 6-well plate and cultured for 24 hours, then treated with LPS (Lipopolysaccharide, concentration 1 μg/ml) solution, and treated with the 3-hydroxypropionic acid aqueous solution according to Preparation Example 1 at four concentrations (3HP concentration: 0 wt. %, 0.0125 wt. %, 0.025 wt. %, 0.05 wt. %), and then cultured again for 24 hours. Only the medium was then separated and centrifuged for 10 minutes to collect only the supernatant. The supernatant was mixed with Griess reagent (Sigma-Aldrich) reagent in a 1:1 ratio and reacted at room temperature, and then the absorbance (OD, wavelength 540 nm) was measured using a microplate reader. The measured value was substituted into the regression equation obtained from the standard curve prepared by reacting Griess reagent (Sigma-Aldrich) and NaNO2 in a 1:1 ratio to calculate the amount of nitric oxide (NO) produced. Here, the case in which neither the LPS solution nor the 3HP aqueous solution was treated was performed as a negative control group.

With O=C(O)CCO [3HP, 3-Hydroxypropionic acid] the “effect of inhibiting the production of reactive nitrogen species” value was “the effect of inhibiting the production of reactive nitrogen species was exhibited”.
